In patent publication US20240226074A1, “CELL-OF-ORIGIN TARGETED DRUG REPURPOSING FOR TRIPLE-NEGATIVE AND INFLAMMATORY BREAST CARCINOMA WITH HDAC AND HSP90 INHIBITORS COMBINED WITH NICLOSAMIDE” (priority 2022, published 2024):

Columns and labels:
IBC02 = assay: WST cell proliferation assay, IBC02 cells; format: cell-based
IBC03 = assay: WST cell proliferation assay, IBC03 cells; format: cell-based
KPL4 = assay: WST cell proliferation assay, KPL4 cells; format: cell-based
SUM149 = assay: WST cell proliferation assay, SUM149 cells; format: cell-based
SUM190 = assay: WST cell proliferation assay, SUM190 cells; format: cell-based
[1] = cited from earlier work; for peak serum concentrations achieved in different clinical trials: human, in vivo; for Cmax: peak serum concentration, clinical trials, read-out: Phase I-II Cmax
HDAC1 = HDAC1 (Homo sapiens, UniProt Q13547); conditions: previously shown [37]; cited from earlier work
[2] = at clinically recommended doses; cited from earlier work
MFM223 = assay: WST cell proliferation assay, MFM223 cells; conditions: 100 nM, 7 days
Experimental: (§1) The inhibition of cell proliferation by E, N, T and ENT is measured by WST assay.

HCC1913 = assay: WST cell proliferation assay, HCC1913 cells; conditions: 100 nM, 7 days
Experimental: as §1

[3] = single drug 1000 nM, Belinostat panel
[4] = single drug 500 nM, Belinostat panel
[5] = single drug 100 nM, Entinostat panel (upper part of Table 6)
[6] = single drug 150 nM, Entinostat panel
[7] = single drug 100 nM, Belinostat panel
[8] = single drug 200 nM, Belinostat panel
[9] = single drug 200 nM, Entinostat panel

Chain of HDAC1 (Q13547 whole entry): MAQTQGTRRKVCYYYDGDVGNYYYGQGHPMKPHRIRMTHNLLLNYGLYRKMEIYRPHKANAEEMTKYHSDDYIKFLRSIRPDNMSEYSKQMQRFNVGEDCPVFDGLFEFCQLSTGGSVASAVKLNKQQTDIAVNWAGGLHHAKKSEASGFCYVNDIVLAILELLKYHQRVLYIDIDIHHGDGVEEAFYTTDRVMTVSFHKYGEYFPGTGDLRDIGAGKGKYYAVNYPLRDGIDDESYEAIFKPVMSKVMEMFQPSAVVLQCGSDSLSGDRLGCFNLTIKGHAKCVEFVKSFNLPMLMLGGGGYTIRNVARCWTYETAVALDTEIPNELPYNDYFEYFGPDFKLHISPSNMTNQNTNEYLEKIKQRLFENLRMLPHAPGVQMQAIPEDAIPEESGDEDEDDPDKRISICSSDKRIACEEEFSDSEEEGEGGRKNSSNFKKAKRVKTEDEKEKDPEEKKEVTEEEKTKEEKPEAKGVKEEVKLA

SMILES	peak serum concentrations achieved in different clinical trials [1] [µM]	Cmax [1] [µM]	Survival of inflammatory breast cancer cells (percent viability vs DMSO) (IBC02; [5])	Survival of inflammatory breast cancer cells (percent viability vs DMSO) (IBC03; [5])	Survival of inflammatory breast cancer cells (percent viability vs DMSO) (KPL4; [5])	Survival of inflammatory breast cancer cells (percent viability vs DMSO) (SUM149; [5])	Survival of inflammatory breast cancer cells (percent viability vs DMSO) (SUM190; [5])	Survival of inflammatory breast cancer cells (percent viability vs DMSO) (IBC02; [7])	Survival of inflammatory breast cancer cells (percent viability vs DMSO) (IBC03; [7])	Survival of inflammatory breast cancer cells (percent viability vs DMSO) (KPL4; [7])	Survival of inflammatory breast cancer cells (percent viability vs DMSO) (SUM149; [7])	Survival of inflammatory breast cancer cells (percent viability vs DMSO) (SUM190; [7])	side effects [2]	other results
O=C(/C=C/c1cccc(S(=O)(=O)Nc2ccccc2)c1)NO [Belinostat]	200	200	–	–	–	–	–	–	–	–	–	–	–	Survival of inflammatory breast cancer cells (percent viability vs DMSO) (IBC02; single drug 500 nM, Belinostat panel (lower part of Table 6)): 14; Survival of inflammatory breast cancer cells (percent viability vs DMSO) (IBC02; [3]): 0; Survival of inflammatory breast cancer cells (percent viability vs DMSO) (IBC03; [4]): 91; Survival of inflammatory breast cancer cells (percent viability vs DMSO) (IBC03; [3]): 45; Survival of inflammatory breast cancer cells (percent viability vs DMSO) (KPL4; [4]): 91; Survival of inflammatory breast cancer cells (percent viability vs DMSO) (KPL4; [3]): 23; Survival of inflammatory breast cancer cells (percent viability vs DMSO) (SUM149; [4]): 71; Survival of inflammatory breast cancer cells (percent viability vs DMSO) (SUM149; [3]): 21; Survival of inflammatory breast cancer cells (percent viability vs DMSO) (SUM190; [4]): 95; Survival of inflammatory breast cancer cells (percent viability vs DMSO) (SUM190; [3]): 107
Nc1ccccc1NC(=O)c1ccc(CNC(=O)OCc2cccnc2)cc1 [Entinostat]	–	–	21	61	45	99	159	–	–	–	–	–	–	Survival of inflammatory breast cancer cells (percent viability vs DMSO) (IBC02; [6]): 12; Survival of inflammatory breast cancer cells (percent viability vs DMSO) (IBC03; [6]): 35; Survival of inflammatory breast cancer cells (percent viability vs DMSO) (KPL4; [6]): 20; Survival of inflammatory breast cancer cells (percent viability vs DMSO) (SUM149; [6]): 102; Survival of inflammatory breast cancer cells (percent viability vs DMSO) (SUM190; [6]): 223; inhibition of HDAC1 (HDAC1): inhibits
O=C(Nc1ccc([N+](=O)[O-])cc1Cl)c1cc(Cl)ccc1O [Niclosamide]	2	2	20	46	91	113	135	17	35	104	74	133	itching, drowsiness, dizziness, and skin rash	sensitivity of cell line (FIG. 2) (MFM223): exceptional sensitivity; sensitivity of cell line (FIG. 2) (HCC1913): exceptional sensitivity
CCc1cc(C(N)=O)ccc1-n1nc(C(C)C)c2c(-n3cnc(-c4cnn(C)c4)c3)ccnc21 [Pimitespib]	7	7	107	89	89	115	114	114	89	102	111	112	diarrhea, decreased appetite, malaise, renal impairment, and anemia	Survival of inflammatory breast cancer cells (percent viability vs DMSO) (IBC02; [8]): 105; Survival of inflammatory breast cancer cells (percent viability vs DMSO) (IBC02; [9]): 114; Survival of inflammatory breast cancer cells (percent viability vs DMSO) (IBC03; [8]): 81; Survival of inflammatory breast cancer cells (percent viability vs DMSO) (IBC03; [9]): 81; Survival of inflammatory breast cancer cells (percent viability vs DMSO) (KPL4; [8]): 136; Survival of inflammatory breast cancer cells (percent viability vs DMSO) (KPL4; [9]): 118; Survival of inflammatory breast cancer cells (percent viability vs DMSO) (SUM149; [8]): 158; Survival of inflammatory breast cancer cells (percent viability vs DMSO) (SUM149; [9]): 172; Survival of inflammatory breast cancer cells (percent viability vs DMSO) (SUM190; [8]): 100; Survival of inflammatory breast cancer cells (percent viability vs DMSO) (SUM190; [9]): 102
O=C(CCCCCCC(=O)Nc1ccccc1)NO [Vorinostat]	–	40	–	–	–	–	–	–	–	–	–	–	–	–
